Read-outs that look alike come from different tables or passages of the source.
Biological target: T1, hVAChT (Homo sapiens, UniProt Q16572)
T1 sequence (Q16572 1-532): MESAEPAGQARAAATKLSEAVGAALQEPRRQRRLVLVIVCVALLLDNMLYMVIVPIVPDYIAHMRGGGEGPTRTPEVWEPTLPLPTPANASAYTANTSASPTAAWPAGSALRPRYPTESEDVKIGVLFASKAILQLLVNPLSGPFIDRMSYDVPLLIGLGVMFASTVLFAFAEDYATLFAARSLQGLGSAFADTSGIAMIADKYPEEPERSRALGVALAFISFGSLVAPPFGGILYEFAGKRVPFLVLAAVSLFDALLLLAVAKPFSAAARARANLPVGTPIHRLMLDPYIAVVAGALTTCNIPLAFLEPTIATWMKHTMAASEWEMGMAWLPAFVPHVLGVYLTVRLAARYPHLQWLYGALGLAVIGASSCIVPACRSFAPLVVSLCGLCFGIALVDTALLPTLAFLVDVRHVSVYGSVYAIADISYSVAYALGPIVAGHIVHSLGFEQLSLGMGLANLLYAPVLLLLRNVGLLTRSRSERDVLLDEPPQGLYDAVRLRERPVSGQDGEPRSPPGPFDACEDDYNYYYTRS
Assay: Competitive binding assay with
Conditions: for inhibition of (-)-[^3H]TZ659 binding to VAChT: competitive binding studies, other CNS receptor ligands

[1] = radioligand (-)-[^3H]TZ659 2 nM, test ligands 0.1 nM to 10 μM, 60 min, 25 °C

With `CC(C)=CCN1CC[C@]2(C)c3cc(O)ccc3C[C@H]1[C@H]2C` [(+)-Pentazocine] the Ki was > 1000 nM and the “inhibition of (-)-[^3H]TZ659 binding to VAChT” value (“inhibition” below) was “No inhibition”.

In the case of `COc1cc2c(cc1OC)[C@H]1C[C@@H](O)[C@H](CC(C)C)CN1CC2` [DTBZ], the “inhibition” value is reported as “No inhibition” and the Ki [1] is reported as > 1000 nM.

For `COc1cc2c(cc1OC)CN(CCCCNC(=O)c1cc(C)ccc1OCCF)CC2` [ISO-1], the “inhibition” value was “No inhibition” and the Ki [1] was > 1000 nM.

In the case of `Cn1cc(-c2ccncc2)c(-c2ccc(OCc3ccc4ccccc4n3)cc2)n1` [MP-10], the “inhibition” value is reported as “No inhibition” and the Ki [1] is reported as > 1000 nM.

In the case of `CCc1cc(Cl)c(OC)c(C(=O)NC[C@@H]2CCCN2CC)c1O` [S-(-)-Eticlopride], the “inhibition” value is reported as “No inhibition” and the Ki [1] is reported as > 1000 nM.

In the case of `COc1ccccc1N1CCN(CC(C(=O)NC(C)(C)C)c2ccccc2)CC1` (stereo not drawn) [WAY-100135], the “inhibition” value is reported as “No inhibition” and the Ki [1] is reported as > 1000 nM.

From paper PMC4369186 (European journal of pharmacology, 2015)
